Literature values as cited in US11230722B2, “Nutritional supplements and therapeutic compositions comprising (r)-3-hydroxybutyrate derivatives” (Oxford University Innovation Limited, priority 2003, dated 2022).

Test system: gastric enzymes

absorption: only poorly absorbed | hydrolysis by gastric enzymes: not efficiently hydrolyzed
Structure (SMILES): C[C@@H]1CC(=O)O[C@H](C)CC(=O)O[C@H](C)CC(=O)O1 [triolide, cyclic trimer of (R)-3-hydroxybutyrate]
